# Measurements: patent EP4032543A1, “PEPTIDES FROM THE SEQUENCE OF THE COMPLEMENT FACTOR D FOR MEDICAL USE, ESPECIALLY FOR THE TREATMENT OF EBV-ASSOCIATED DISEASES” (Fraunhofer-Gesellschaft zur Förderung der angewandten …, priority 2021, dated 2022)
# System: latently EBV-infected Raji-reporter cells
# Assay: Induction of lytic EBV-infection after proviral treatment (expression of ZEBRA)
# Type: cell-based
# Conditions: EBV-positive Raji-reporter cells, 24 hours induction, related to untreated control; PMA at 20 ng/ml; Figure 1
# Experimental: The relative induction of the EBV lytic cycle in latently EBV-infected Raji-reporter cells was tested using the human peptide mixture comprising the two complement factor D derived peptide sequences SEQ ID No. 3 and SEQ ID No. 4 (CFD+ peptide mixture) in comparison to the known exogenous proviral substance phorbol-12-myristate13-acetate (PMA), each related to the untreated control. The EBV-positive Raji-reporter cells were treated with the human peptide mixture or with the 20 ng/ml PMA. In a control, cells were not treated with a proviral substance. After 24 hours induction the lytic EBV-infection was compared between treated and non-treated cells via expression of the lytic EBV-immediate early protein ZEBRA. […] Without being bound to the theory, it can be assumed that the pure peptides will result in an even better induction.
smiles,measurement,value
"CCCCCCCCCCCCCC(=O)O[C@@H]1[C@@H](C)[C@@]2(O)[C@@H](C=C(CO)C[C@]3(O)C(=O)C(C)=C[C@@H]23)[C@@H]2C(C)(C)[C@]12OC(C)=O [PMA, phorbol-12-myristate13-acetate]",induction of lytic EBV-infection via expression of the lytic EBV-immediate early protein ZEBRA,resulted in the induction of lytic EBV-infection
